Where only a bound is given, the exact number is not on record here.

`O=[N+]([O-])c1ccc(S(F)(F)(F)(F)F)cc1` showed a melting point of 38 °C.
The value for `N#CC(CCc1ccc(Cl)cc1)(Cn1cncn1)c1ccccc1` (stereo not given) was 126 °C; that for `CCc1cc2ccccc2ccc1=O` was 49 °C.
Turning to `Nc1cc(S(=O)(=O)O)ccc1Cl`, the melting point was found to be 300 °C.
The value for `COC(=O)C1=C(C(=O)OC)[C@@H]2C=C[C@H]1c1cc3ccccc3c(-c3ccccc3)c12` was 219 °C; that for `COc1cc2c(cc1OC)[C@@H](C(=O)c1ccc3c(c1OC)C=CC(C)(C)O3)CCO2` was 118 °C.
Molecule `O=CC=Cc1ccc([N+](=O)[O-])cc1` displayed a melting point of 142 °C.
On to `Cc1ccccc1N1CCNCC1`, for which the melting point was in the range of 48 to 52 °C.
The value for `O=C(CC(=O)C(F)(F)F)c1ccccc1` was 39 °C; that for `COc1ccc(CC(N)C(=O)NC2C(CO)OC(n3cnc4c(N(C)C)ncnc43)C2O)cc1` (stereo not given) was 176 °C; that for `Cc1ccc2c(ccc3ccccc32)n1` was 76 °C.
On to `NC(=O)Nc1ccc(Cl)cc1`, for which the melting point amounted to 206 °C.
`c1ccc2c(c1)c(Cc1cn(CN3CCCCC3)c3ccccc13)cn2CN1CCCCC1` displayed a melting point of 138 °C.
`C[C@@]12CC[C@@H]3[C@H](CC[C@]4(C)C(=O)CC[C@]34C)[C@@]1(C)CCC(=O)C2` came in with a melting point of 184 to 186 °C.
On to `COc1ccccc1C`, for which the melting point is -34.1 °C.
`CCOC(=O)CCCCCCCCCCCCCCCCC(=O)OCC` gave a melting point of 54.5 °C.
The same measure for `CCCCCCCC(C)CC` (stereo not given): -92.9 °C; for `CC1=NCCS1`: -101 °C.
The same measure for `CCCC(C)O` (stereo not given): -73 °C.
As to `O=C(O)C=Cc1ccc(Oc2ccccc2)nc1`, the melting point fell in the range of 204 to 206 °C.
`CN[C@H](CC(=O)O)C(=O)O` came in with a melting point of 187 to 192 °C.
`COC=CC(=O)OC` gave a melting point of 3 to 4 °C.
`O=C(O)CCCCCCCCCCCCCCC(=O)O`: the melting point was 124 to 126 °C.
For `CC(=O)Nc1ccccc1F`, the melting point stood at 78 °C.
The value for `O=[N+]([O-])c1ccc(Oc2ccc(C(F)(F)F)cc2Cl)cc1` was 68 °C.
The molecule `OCc1ccc(-c2ccccc2)cc1` had a melting point of 101 to 105 °C.
The same measure for `Cc1cc2c(cc1C)CCCC2`: 10 °C.
The value for `c1ccc2c(c1)-c1ccc3ccc4cccc5cc-2c1c3c45` was 164 °C.
The molecule `CC(=O)c1ccc[nH]1` showed a melting point of 90 °C.
For `O=C(NC(=O)C(F)(F)F)C(F)(F)F`, the melting point was 84 °C.
`O=C(O)Cc1coc2ccccc12` yielded a melting point of 90 to 93 °C.
The molecule `Cc1cc(C)c(N)c(C(O)c2ccccc2)c1` (stereo not given) gave a melting point of 125 °C.
The value for `Cc1nnc(Sc2ccc(C=O)o2)n1C` was 143 to 147 °C.
The same measure for `O=C(Nc1cccc(Br)c1)c1cncc(Cl)n1`: 100 °C; for `CCOC(=O)c1c(N)sc2c1CCN(Cc1ccccc1)C2`: 112 °C; for `Cc1ccc(-c2cc(N)n(-c3ccccc3)n2)cc1`: 173 to 176 °C.
Turning to `NC(=O)C1C2C=CC(C2)C1N` (stereo not given), the melting point lay in the range of 235 to 253 °C.
The molecule `c1ccc(C2=NOC(c3ccccc3)C2)cc1` (stereo not given) registered a melting point of 75 °C.
The same measure for `CC(=O)Oc1ccccc1-c1ccccc1`: 65 °C.
On to `Cc1cc([N+](=O)[O-])cnc1N`, for which the melting point is 260 °C.
Consider `O=c1oc2ccccc2c(O)c1C1CCCc2ccccc21` (stereo not given), for which the melting point was 174 °C.
The same measure for `CC(=O)NCc1ccccc1C(c1ccc(C)o1)c1ccc(C)o1`: 65 °C; for `CCc1cccc(C(C)=O)c1`: -20 °C.
In turn, `Cc1c(C(=O)O)nnn1Cc1ccccc1` had a melting point of 170 to 171 °C.
The same measure for `O=C(O)c1nccnc1C(=O)O`: 188 °C.
The same measure for `N#Cc1ccc(F)c(C(F)(F)F)c1`: 68 °C.
The same measure for `C=CC=C(C=C1C(=O)NN=C1c1c(O)c2ccccc2n(C)c1=O)C(Cl)=CC`: 260 °C; for `O=NN(c1ccccc1)c1ccccc1`: 66.5 °C; for `CCOC(=O)CCCCC(=O)O`: 29 °C.
The molecule `CC#CCCCCC` had a melting point of -61.6 °C.
The value for `CCOC(=O)C1=C(C)NC(=O)NC1c1ccccc1` (stereo not given) was 180 °C; that for `O=C(Cc1ccccc1)C(c1ccccc1)N1CCCCC1` (stereo not given) was 137 °C.
Consider `COC(=O)[C@H]1C[C@]2(Sc3ccccc3)O[C@@]1(c1ccc(OC)cc1)c1c2cc(Cl)nc1Cl`, for which the melting point worked out at 118 °C.
The same measure for `CO[C@@H](C)C(N)=O`: 80 to 84 °C.
The value for `O=[N+]([O-])c1c(Cl)c(Cl)c(Cl)c(Cl)c1NCc1ccccc1` was 96 to 97 °C.
The value for `N#CCc1ccc2ccccc2c1` was 78 to 88 °C; that for `COc1ccc(C(=O)N(NC(=O)c2ccccc2)C(C)(C)C)cc1OC` was 206 °C.
`Cc1cccc(C)c1C#N` registered a melting point of 90 °C.
`CC(C)(C)OC(=O)n1cc(CBr)c2ccccc21` came in with a melting point of 106 °C.
As to `Nc1ccc(CN2CCOCC2)cc1`, the melting point was in the range of 99 to 100 °C.
The value for `C[C@]12CCC(=O)C=C1CCC[C@@H]2O` was 57 °C; that for `Cc1cc(C(N)=S)no1` was 169 to 172 °C.
In turn, `CCOP(=S)(OCC)SCn1nnc2ccccc2c1=O` gave a melting point of 53 °C.
In turn, `O=C(O)c1ccc(SSc2ccc(C(=O)O)cc2[N+](=O)[O-])c([N+](=O)[O-])c1` came in with a melting point of 308 °C.
On to `O=C1OC(c2ccccc2)=NC1=Cc1ccc(Cl)cc1`, for which the melting point was 192 to 193 °C.
The same measure for `CCCCCC#CCO`: -18 °C; for `CCCCCCCCCCCCCCCC(=O)OCC`: 24 °C.
The value for `Oc1ccc(Nc2ccc3ccccc3c2)cc1` was 140 °C.
As for `O=S1(=O)OC(c2cc(Cl)c(O)c(Br)c2)(c2cc(Cl)c(O)c(Br)c2)c2ccccc21`, the melting point is 230 °C.
The same measure for `Nc1cccc2c1C(=O)c1cccc(N)c1C2=O`: 319 °C; for `COc1ccc(OCCBr)cc1`: 46 to 50 °C.
`COC(=O)c1ccc(/C=C/c2ccc(C(=O)OC)cc2)cc1`: the melting point amounted to 235 °C.
The value for `CCCCCCCCCCCCCCCCCCS(=O)(=O)Cl` was 58 °C.
`Cc1ccc2cnccc2c1` displayed a melting point of 85.5 °C.
For the molecule `CCOC(=O)c1c(-c2ccccc2)[nH]c2cc3[nH]c(-c4ccccc4)c(C(=O)OCC)c3cc12`, the melting point was more than 140 °C.
Turning to `O=c1[nH]c(=O)n(-c2cccc(C(F)(F)F)c2)c2c1CCCC2`, the melting point lay in the range of 252 to 255 °C.
As to `CCC(Cl)CC`, the melting point was -105 °C.
Molecule `BrCCCCCBr` displayed a melting point of -34 °C.
The value for `CCNCC(=O)O` was 182 to 186 °C; that for `CNC(=O)COC1CCN(C(=O)OC(C)(C)C)CC1` was 95 °C.

Source of the values: a melting point compilation (Tetko et al.).
